According to PubChem BioAssay (NCI):
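Growth conditions: 96-well plates. Treatment: test compound, 48 hours, 5 concentrations. Analysis: linear interpolation between bracketing concentrations; unreached endpoints set to highest concentration. GI50 marks 50% less growth. TGI: concentration producing complete growth inhibition.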

Tests used:
Experiment in all cases: inhibition of tumour cell growth, NCI panel, 48 h
[1] = system: SK-MEL-5 melanoma
[2] = system: HOP-62 NSCLC
[3] = system: CAKI-1 renal
[4] = system: RXF 393 renal
[5] = system: MOLT-4 leukemia
[6] = system: 786-0 renal
[7] = system: KM12 colon
[8] = system: HCT-15 colon

Structure (SMILES) | TGI [1] | TGI [2] | TGI [3] | TGI [4] | TGI [5] | TGI [6] | TGI [7] [µM] | TGI [8] | GI50 [1] [µg/mL] | GI50 [2] [µg/mL] | GI50 [3] [µg/mL] | GI50 [4] [µg/mL] | GI50 [5] [µg/mL] | GI50 [6] [µg/mL] | GI50 [8] [µg/mL]
N#CC1CCCCCCCCCCC(=O)N(CCCl)C1=O (stereo unspecified) | > 100 µM | > 100 µM | > 100 µM | > 100 µM | > 100 µM | > 100 µM | > 100 |  |  |  |  |  |  |  | 
COc1ccccc1NC(=O)CC(=O)N/N=C/c1ccc(N(CCC#N)S(=O)(=O)c2ccccc2)cc1 | > 100 µM | > 100 µM | > 100 µM |  | > 100 µM | > 100 µM | > 100 | > 100 µM |  |  |  |  |  |  | 
N#Cc1cccc(/C=N/N=C(\N)NO)c1 |  | > 100 µM | > 100 µM | > 100 µM |  | > 100 µM | > 100 | > 100 µM |  |  |  |  |  |  | 
O=Cc1c(O)c(C(=O)Nc2ccc3[nH]c(=O)[nH]c3c2)cc2ccccc12 | > 100 µM | > 100 µM | > 100 µM | > 100 µM | > 100 µM | > 100 µM | > 100 | > 100 µM |  |  |  |  |  |  | 
CC(=O)OCC1OC(n2c(-c3ccc(C)cc3)cc(-c3ccccc3)c(C#N)c2=O)C(OC(C)=O)C(OC(C)=O)C1OC(C)=O (stereo unspecified) | > 100 µM | > 100 µM | > 100 µM |  | > 100 µM | > 100 µM | > 100 | > 100 µM |  |  |  |  |  |  | 
N#CC1CC2(CCN1C(=O)c1ccccc1)OCCO2 (stereo unspecified) | > 100 µM | > 100 µM | > 100 µM | > 100 µM | > 100 µM | > 100 µM | > 100 | > 100 µM |  |  |  |  |  |  | 
COC(C)(C)C/C=C/C(C)=C/C=C/C(C)=C\C=C\C(C)=C\C=C\C=C(C)\C=C\C=C(C)\C=C\C=C(C)\C=C\CC(C)(C)OC | > 150 µg/mL | > 150 µg/mL | > 150 µg/mL | > 150 µg/mL | > 150 µg/mL | > 150 µg/mL |  | > 150 µg/mL | > 150 | > 150 | > 150 | > 150 | > 150 | > 150 | > 150
CC(C)OP(=O)(NC(=S)c1ccccc1)OC(C)C | > 100 µM |  | > 100 µM |  | > 100 µM | > 100 µM | > 100 | > 100 µM |  |  |  |  |  |  | 
NC(N)=NS(=O)(=O)c1ccc(NCCc2c3ccccc3nc3ccccc23)cc1 |  | > 100 µM | > 100 µM | > 100 µM | > 100 µM | > 100 µM | > 100 | > 100 µM |  |  |  |  |  |  | 
Cc1cc2c(C)nn(Cc3ccc(Cl)cc3)c2c(C#N)c1C |  | > 100 µM |  | > 100 µM |  | > 100 µM |  | > 100 µM |  |  |  |  |  |  | 
Cc1cc(Cl)ccc1NC(=O)CC1SC(=Nc2ccccc2Cl)NC1=O (stereo unspecified) | > 100 µM | > 100 µM | > 100 µM | 84.3 µM | > 100 µM | > 100 µM | > 100 | > 100 µM |  |  |  |  |  |  | 
O=C1C(=Cc2c(O)cc(O)cc2O)C(=O)c2ccccc21 | > 100 µM | > 100 µM | > 65.5 µM | 27.9 µM | > 81.6 µM | > 56.4 µM | > 51.4 | > 77 µM |  |  |  |  |  |  | 
CC(C)(c1ccccc1)c1ccc(OC#N)cc1 | > 100 µM | > 100 µM | > 100 µM | > 100 µM | > 100 µM | > 100 µM | > 100 | 31.3 µM |  |  |  |  |  |  | 
Cn1cc2ccccc2c1-c1nc(F)nc(OCC(=O)[C@H]2CCC3[C@@H]4CCC5=CC(=O)CC[C@]5(C)C4[C@@H](O)C[C@@]32C)n1 (stereo partly specified) | 44.9 µM | 42.7 µM | 14 µM | 14.5 µM | 54.3 µM | 30.5 µM | 33.3 | 20.7 µM |  |  |  |  |  |  | 
O=C(O)CCc1nn2c(nc1=O)sc1ccc3ccccc3c12 | > 100 µM | > 100 µM | > 100 µM | > 100 µM | > 100 µM | > 100 µM |  | > 100 µM |  |  |  |  |  |  | 
CC(=O)C1=C(O)CC2CC3c4[nH]c5ccccc5c4CCN3CC2C1 (stereo unspecified) | > 100 µM | > 100 µM |  | 82.3 µM | 70.6 µM | > 100 µM | > 100 | > 100 µM |  |  |  |  |  |  | 
Cn1cc(C(=O)C[n+]2ccccc2)c2ccccc21 | > 100 µM | > 100 µM | > 100 µM |  | > 100 µM | > 100 µM | > 100 | > 100 µM |  |  |  |  |  |  | 
O=c1c2cc(Cl)ccc2sc2cccc(Cl)c12 |  | > 100 µM | > 100 µM | > 100 µM | > 100 µM | > 100 µM | > 100 | > 100 µM |  |  |  |  |  |  | 
COc1cccc(NC(=O)/C(Cc2nc3ccccc3nc2C)=N/NC(=O)C[n+]2ccccc2)c1 | > 100 µM | > 100 µM | > 100 µM |  | > 100 µM | > 100 µM | > 100 | > 100 µM |  |  |  |  |  |  | 
O=C(NC12CC3CC(CC(C3)C1)C2)C(=O)c1c[nH]c2ccccc12 | 30.4 µM | 36.7 µM |  |  | 43.2 µM | 25.8 µM | 28.5 | 24.4 µM |  |  |  |  |  |  | 
COC(=O)Nc1nc2ccc(Br)cc2[nH]1 | > 100 µM | > 100 µM |  | 67.2 µM | > 100 µM | > 100 µM | > 100 | > 100 µM |  |  |  |  |  |  | 
CN(C)c1ccc(/C=c2\sc3nc4ccccc4n3c2=O)cc1 | > 100 µM | > 100 µM | > 100 µM | > 100 µM |  | > 100 µM | > 100 | > 100 µM |  |  |  |  |  |  | 
